According to patent US7166694B2, “Vaccine against cancerous diseases which is based on mimotopes of antigens expressed on tumor cells” (priority 2000, dated 2007):
Marks after values point to notes of the source that are not given here.

Assays:
SKBR3 membranes = test: ELISA of control antibody binding to SKBR3 membranes; details: control antibody against CD20
Experimental: (§1) The wells of a 96-well ELISA plate (Nunc) were coated with membrane fractions of the Her-2/neu overexpressing cell line SKBR3 and as a control for non-specific antibody bonds with membrane fractions of the Her-2/neu negative cell line HTB 132 in PBS overnight.
(§2) The next day, non-specific binding sites were blocked by 3 percent BSA in PBS. Herceptin as well as herceptin after preincubation with relevant and irrelevant phage mimotopes or by mimotopes on KLH as well as on KLH alone were applied to the coated, blocked ELISA plate in a repeated test. […] HRP enters into a color reaction with the substrate. The result of this color reaction can be quantified by photometer. The absorption coefficient of 450/630 nm (OD) is determined.

Her-2/neu = test: ELISA inhibition of the binding of herceptin and HER-2/neu (SKBR3 membranes) by mimotopes; details: in comparison to uninhibited herceptin control in ELISA, herceptin preincubated overnight
Experimental: For the ELISA inhibition assay one tries to prevent this bond by preincubation with mimotopes on phages or KLH as carrier.
as §1, §2

Substance	signal on SKBR3 membranes (SKBR3 membranes)	Inhibition of herceptin binding with phage mimotopes (Her-2/neu)
Rituximab: humanized monoclonal antibody directed against the phosphoprotein surface antigen on lymphocytes, CD20; control antibody	could not produce any signal	–
phage mimotope SEQ ID NO: 9: phage mimotope CHPTLLWPDFC (homo sapiens)	–	30.2* Percent
